The format of data set [1] is physicochemical. How it is done:
The structural and conformational characterization of the RiLK1 peptide was assessed by investigating its secondary structure by ^1H NMR spectroscopy in H2O and in a micellar solution of SDS at a concentration of 150 mM to mimic the condition of the bacterial cell membrane.
In fact, the representative structures of the RiLK1 peptide in water show a random orientation of both polar and hydrophobic amino acid side chains.
The helical structure appears well defined and stabilized by hydrophobic interactions of amino acid residues located on the opposite face. It is important to note that, in this arrangement, all the charged side chains are iso-oriented and well prone to interact with the negatively charged surface of the SDS micelles. Furthermore, the two tryptophan residues within the RiLK1 sequence are located at an optimal distance for their mutual stacking, thus contributing to the stabilization of the helix. It should be pointed out that the ^1H NMR spectra of the peptide IDR-1018-K6 (described in patent application WO2019012158) could not be acquired in the presence of micellar solutions of SDS since it is not soluble at the concentrations required to carry out these assays. […] Therefore, it is possible to assert that the NMR analysis in the presence of SDS has shown that the RiLK1 peptide of the present invention is capable of adopting the helix conformation, whereas the IDR-1018-K6 peptide (object of patent WO2019012158) has poor solubility and a heterogeneous system not suitable for NMR structural characterization (Table 2).

The subject of data set [2] is S. typhimurium. It counts as cell-based, Salmonella typhimurium. How it is done: (§1) The evaluation of the Minimum Bactericidal Concentration (MBC), i.e., the lowest concentration of antimicrobial agent capable of 99.9% inhibition of bacterial growth on plates, was carried out as described in Bílikova et al, (2015, Peptides 68:190-196). […] It should be noted that the peptide object of the present invention is more powerful and efficient than the peptide IDR-1018-K6 (described in patent application WO2019012158) against the pathogenic bacteria L. monocytogenes and S. typhimurium, with bactericidal concentration values 4-fold and 7-fold lower, respectively, compared to those shown by IDR-1018-K6.

For data set [3], the system named is Candida albicans (ATCC 14053). The data set is described as follows: activity against yeast, plate count, MFC. Type of data set: cell-based. To be noted: C. albicans. The procedure:
The inhibitory activity of the RiLK1 peptide was determined against the yeast Candida albicans. A stock culture was prepared in which 10^5 CFUs of C. albicans were inoculated in 10 ml of buffered peptone water. A reference strain (ATCC 14053) was used for this species. The culture was incubated for 6 h at 37° C. with the RiLK1 peptide at 25 μM concentrations. At the same time, control samples were incubated without adding the peptide. 100 μl of the samples thus prepared were seeded on DG18 plates (Dichloran 18% Glycerol Agar-ISO 21527-2) and incubated at 25° C. for 7 days. All experimental conditions investigated used the plate count method to estimate the antimycotic activity of the peptide. Specifically, the numbers of colonies grown on agar plates seeded with the cultures in the absence or presence of the individual peptide dilutions were counted and compared. The standard deviations of the triplicate incubations of each plate were determined using statistical software. The evaluation of the Minimum Fungicidal Concentration (MFC), i.e., the lowest concentration of antifungal agent capable of 99.9% inhibition of fungal growth on plates, was carried out as described in Bílikova et al, (2015, Peptides 68:190-196).

Data set [4] has as its system S. aureus. It counts as cell-based, Staphylococcus aureus. The procedure: as §1
The nature of data set [5]: physchem. It counts as physicochemical. The procedure: The tests were carried out in three of the most common solvents used in biological applications such as: ultrapure water; DPBS (Dulbecco's Phosphate Buffered Saline), i.e., a saline buffer containing potassium chloride (KCl), monobasic potassium phosphate (KH2PO4), sodium chloride (NaCl) and dibasic sodium phosphate (Na2HPO4-7H2O) and finally in an organic solvent such as dimethylsulfoxide (DMSO).

In data set [6] the test system is E. coli. It counts as cell-based, Escherichia coli. The procedure: as §1
Data set [7] deals with Aspergillus brasiliensis (ATCC 9341). Put plainly: antifungal activity, plate count, MFC. It counts as cell-based. To be noted: A. brasiliensis. The procedure:
The antifungal activity of the RiLK1 peptide was determined against Aspergillus brasiliensis. For this purpose, a stock culture was prepared in which 10^5 CFUs of A. brasiliensis were inoculated in 10 ml of buffered peptone water. A reference strain (ATCC 9341) was used for this fungal species. The culture was incubated for 6 h at 37° C. with the RiLK1 peptide at 25 μM concentrations. At the same time, control samples were incubated without adding the peptide. 100 μl of the samples thus prepared were seeded on DG18 plates (Dichloran 18% Glycerol Agar-ISO 21527-2) and incubated at 25° C. for 7 days. All experimental conditions investigated used the plate count method to estimate the fungicidal activity of the peptide. Specifically, the numbers of colonies grown on agar plates seeded with the fungal suspensions in the absence or presence of the individual peptide dilutions were counted and compared. The standard deviations of the triplicate incubations of each plate were determined using statistical software. The evaluation of the Minimum Fungicidal Concentration (MFC), i.e., the lowest concentration of antifungal agent capable of 99.9% inhibition of fungal growth on plates, was carried out as described in Bílikova et al, (2015, Peptides 68:190-196).

For data set [8], the system named is L. monocytogenes (LM2). Type of data set: cell-based, Listeria monocytogenes. To be noted: LM2. The procedure: as §1

≈ marks a conversion by molar mass, not a printed value. Like-named read-outs stand apart in the source and are kept apart here. Where a SMILES comes first, the peptide text is derived from it. Where no end group is shown, it is not given here.

We go through five molecules from patent US20260234187A1, “ANTIMICROBIAL PEPTIDES” (MATERIAS S.R.L., priority 2020, published 2026).

As to “VRLIVKVRIWRR-NH2 (C-terminus assumed) [IDR-1018-K6]”, the solubility was 1000 µM in data set [1], “totally insoluble” in data set [5] and no more than 5000 µg/mL in data set [5] (Solubility limit). Moreover, the “peptide concentration in NMR sample (solubility)” value in data set [1] (pH 4.4) was “insoluble”. In addition, the MBC amounted to 25 µM in data set [2], 15 µM in data set [4], 2 µM in data set [6] and 8 µM in data set [8]. Besides, the “Drop Log CFU/ml” value stood at 1.0 Log CFU/ml in data set [3] (25 μM, 6 h) and 0 Log CFU/ml in data set [7] (25 μM, 6 h). Besides, the “post-treatment decrease in the fungal load” value in data set [3] (25 μM, 6 h) worked out at 1.0 Log; in data set [7] (25 μM, 6 h) it was 0 Log. Moreover, the “antimycotic activity in words” value in data set [3] (same experimental conditions) was “low efficiency”. For the same molecule, the “antifungal activity in words” value in data set [7] (same experimental conditions) is reported as “not active”.

Take “VRLIVKVRIWRR-NH2 (C-terminus assumed) [IDR-1018-K6(L)]”: the Outcome entry in data set [5] and in data set [5] (pH 7.1) was “Dissolved” in each case. The Solubility limit in data set [5] came to 10000 µg/mL. Further, the solubility in data set [5] (Solubility limit) came to 5000 µg/mL; in data set [5] (pH 7.1, Solubility limit) it was 5000 µg/mL.

`CC[C@@H](C)[C@@H](NC(=O)[C@@H](CCCNC(=N)N)NC(=O)[C@H](NC(=O)[C@@H](Cc1c[nH]c2ccccc12)NC(=O)[C@@H](CCCCN)NC(=O)[C@@H](CC(C)C)NC(=O)[C@H](N)CCCNC(=N)N)C(C)C)C(=O)N[C@H](Cc1c[nH]c2ccccc12)C(=O)N[C@H](CCCNC(=N)N)C(=O)N[C@H](CCCNC(=N)N)C(N)=O` [RiLK1(D), RLKWVRIWRR] (HELM PEPTIDE1{[dR].[dL].[dK].[dW].[dV].[dR].[dI].[dW].[dR].[dR].[am]}$$$$V2.0; N-terminus assumed): the Outcome result in data set [5] and in data set [5] (pH 7.1) was “Dissolved” in each case. Further, the Solubility limit in data set [5] came to 10000 µg/mL (≈ 6.81 mM). Besides, the solubility in data set [5] (Solubility limit) amounted to 10000 µg/mL (≈ 6.81 mM); in data set [5] (pH 7.1, Solubility limit), 10000 µg/mL (≈ 6.81 mM).

As to `CC[C@@H](C)[C@@H](NC(=O)[C@@H](CCCNC(=N)N)NC(=O)[C@H](NC(=O)[C@@H](CCCCN)NC(=O)[C@H](NC(=O)[C@H](NC(=O)[C@@H](CC(C)C)NC(=O)[C@@H](CCCNC(=N)N)NC(=O)[C@H](N)C(C)C)[C@H](C)CC)C(C)C)C(C)C)C(=O)N[C@H](Cc1c[nH]c2ccccc12)C(=O)N[C@H](CCCNC(=N)N)C(=O)N[C@H](CCCNC(=N)N)C(N)=O` [IDR-1018-K6 (D)] (HELM PEPTIDE1{[dV].[dR].[dL].[dI].[dV].[dK].[dV].[dR].[dI].[dW].[dR].[dR].[am]}$$$$V2.0; N-terminus and C-terminus assumed), the Solubility limit in data set [5] and in data set [5] (pH 7.1) was 0 µg/mL throughout. Besides, the solubility in data set [5] (Solubility limit) was determined as 10000 µg/mL (≈ 6.28 mM). Besides, in data set [5] (pH 7.1), the Outcome entry is on record as “NOT dissolved”.

For the molecule RLKWVRIWRR-NH2 [RiLK1(L), RLKWVRIWRR], the Outcome entry in data set [5] and in data set [5] (pH 7.1) was “Dissolved” each time. Moreover, the Solubility limit in data set [5] came out at 10000 µg/mL. Further, the solubility was 10000 µg/mL in data set [5] (Solubility limit) and 10000 µg/mL in data set [5] (pH 7.1, Solubility limit).
